These results are taken from patent US4269717A, “Boiler additives for oxygen scavenging” (priority 1980, dated 1981).

Assay [1] can be described thus: Metal passivation in experimental firerod boiler (Table IV). An excerpt: Metal passivation studies were undertaken using an experimental firerod boiler under the following test conditions:
10 boiler water concentrations
40 ppm M alkalinity (as CaCO3)
A blank containing no oxygen scavenger was followed by test runs with hydrazine, carbohydrazide, and sodium sulfite.
*Tubes ranked by appearance of metal surface.

The nature of assay [2]: Corrosion control under static storage conditions. Conditions: 160 moles or more of carbohydrazide per mole of oxygen. The text has this:
The amount of carbohydrazide required to effectively scavenge oxygen from the boiler water is dependent upon the amount of oxygen actually present therein. It is generally desirable that at least 0.5 moles of carbohydrazide be used per mole of oxygen. These minimum levels of carbohydrazide will have the added benefit of effectively passivating metal surfaces. Of course, levels of carbohydrazide considerably in excess of 0.5 moles per mole of oxygen may be required, particularly for treating boiler water under static storage conditions.

In the case of `NNC(=O)NN` [Carbohydrazide, N, N' diaminourea], the “Tube Rank (by appearance of metal surface)” value in assay [1] (dosage 1 ppm, 600 p.s.i., 48 hour test) is reported as 1. Further, the Metal passivation effectiveness result in assay [1] (under the test conditions, Table IV) is given as “the most effective metal passivator”. In assay [2], the “Corrosion control under static conditions” value is recorded as “effective in controlling corrosion”.
